Measured values from patent US20060241027A1, “Hiv inhibiting proteins” (priority 2002, published 2006).
Like-named read-outs stand apart in the source and are kept apart here.

How the values were obtained:
[1] = molecular target: HIV-1 gp41 (transmembrane subunit of the HIV-1 envelope glycoprotein) (HIV-1) (UniProt P03377); assay: cell-based or functional assay
HIV = conditions: 12.5 mg/day to 200 mg/day (Gulick, 2002); cited from earlier work
HIV-2 = conditions: cited from earlier work
[2] = primates; cited from earlier work
SIV = conditions: cited from earlier work
HIV-1 [3] = conditions: cited from earlier work
[4] = cited from earlier work; for terminal half-life: humans
HIV-1 [5] = conditions: low nanomolar range; cited from earlier work

Substance: C-terminal albumin-(GGS)4GG-T-20 fusion protein, expressed in the pmt1 gene deficient yeast strain (from UniProt P02768 25-609)
- 50% inhibitory concentration, HIV-1 cell-cell fusion assay on Jurkat cells [1]: 4 to 13 nM

Substance: C-terminal albumin-(GGS)4GG-T-1249 fusion protein, produced in the standard (PMT1) yeast strain (from UniProt P02768 25-609)
- 50% inhibitory concentration (IC50), HIV-1 cell-cell fusion assay on Jurkat cells [1]: 10 to 100 nM

Substance: WQEWEQKITALLEQAQIQQEKNEYELQKLDKWASLWEWF [T-1249]
- suppression of HIV (HIV): dose-related suppression of HIV
- activity against HIV-2 (HIV-2): active
- half-life / AUC compared with T-20 [2]: twofold increased AUC
- activity against SIV (SIV): active
- activity against HIV-1 (HIV-1 [3]): active

Substance: enfuvirtide
- plasma half-life ([4]; clinical trials, typical dose 50 mg twice daily): about 1.8 hours
- terminal half-life ([4]; 45 mg subcutaneous dose (Zhang X et al., 2002)): 3.46 h
- terminal half-life ([4]; 180 mg subcutaneous dose (Zhang X et al., 2002)): 4.35 h
- antiviral activity in cell-cell fusion assays (HIV-1 [5]): 0.2 to 2 nM
- activity against HIV-2 (HIV-2): does not inhibit
- activity against SIV (SIV): does not inhibit
- activity against HIV-1 (HIV-1 [3]): active against several clades of HIV-1
